Measurements taken from US11844793B2, “Liquid formulations of indacaterol” (AeroRx Therapeutics LLC, priority 2020, dated 2023).

Tests used:
Assay type in all cases: physicochemical
[1] = Forced degradation study of indacaterol (RP-HPLC impurities); settings: for Total Impurities (%): includes 2% process-related impurity
Method: A degraded sample panel was prepared to identify indacaterol degradation pathways and products. Stress conditions are outlined in Table 1.
One of 6N HCl, 6N NaOH, or 30% H2O2 (aqueous) were added to a suitable volume of 100 μg/mL indacaterol and diluted with water:methanol (50:50, v:v) to achieve a final indacaterol concentration of 10 μg/mL. Samples were stored at ambient temperature. At specified time points, acidic and basic hydrolysis (1 N HCl and 1 N NaOH, respectively) samples were neutralized (H2O2 samples were not quenched) and reversed-phase high performance liquid chromatography (RP-HPLC) was used to quantitate indacaterol impurities. All samples were diluted to 5 μg/mL prior to RP-HPLC analysis. Method parameters are outlined in Table 2.
Total impurities (process-related and product-related) of the indacaterol forced degradation study samples are presented in Table 3. Forced degradation impurity peaks were identified based on their retention time relative (RRT) to the indacaterol peak. Impurity peaks already present in the indacaterol (control group at T0; total peak area approximately 2%) were considered process-related, while additional peaks formed after the degradation were considered product-related.

[2] = Aqueous solubility of indacaterol with varying pH in citrate buffer; settings: aqueous citrate buffer 5 mM
Method: Solubility studies of indacaterol in solutions of varying pH were performed using an orbital shaker method. Excess indacaterol was placed in a glass vial with an aqueous citrate buffer (5 mM; prepared from citric acid and NaOH). Samples were shaken for 12 to 24 hours to ensure equilibrium was reached before checking and adjusting the pH (using 1 M HCl and NaOH) and placing samples back into the orbital shaker for an additional 12 hours. This process was repeated up to two times or until the desired pH was obtained. After the desired pH was reached, the vial was removed from the shaker and allowed to settle for 30 minutes. Then, the sample was filtered using a 0.2 μM PVDF syringe filter; the initial 0.5 mL of filtrate was discarded. The pH was then measured and the concentration of the indacaterol was evaluated by UV-Vis.

[3] = Aqueous solubility of indacaterol and indacaterol maleate in water (orbital shaker, UV-Vis); settings: water at pH 7.1
Method: Solubility studies of indacaterol and indacaterol maleate were performed using an orbital shaker method. Excess indacaterol was placed in a glass vial with water. The initial pH of the water was 7.1. Samples were shaken for 12 hours to ensure equilibrium was reached. After the 12 hour period, the vial was removed from the shaker and allowed to settle for 30 minutes. Then, the sample was filtered using a 0.2 μM polyvinylidene fluoride (PVDF) syringe filter; the initial 0.5 mL of filtrate was discarded. The pH was then measured and the concentration of the indacaterol was evaluated by UV-Vis.

For CCc1cc2c(cc1CC)CC(NC[C@H](O)c1ccc(O)c3[nH]c(=O)ccc13)C2 [Indacaterol, (R)-5-[2-(5,6-Diethylindan-2-ylamino)-1-hydroxyethyl]-8hydroxy-1H-quinolin-2-one], the “Total Impurities (%)” value ([1]; Acidic Hydrolysis (1M HCl), 15 h, ambient temperature) was 7.25%, the “Total Impurities (%)” value ([1]; Acidic Hydrolysis (1M HCl), T0) was 4.01% and the “Total Impurities (%)” value ([1]; Basic Hydrolysis (1M NaOH), 15 h, ambient temperature) was 7.69%. The “Total Impurities (%)” value ([1]; Basic Hydrolysis (1M NaOH), T0) was 3.99%, the “Total Impurities (%)” value ([1]; Control, T0) was 1.81% and the “Total Impurities (%)” value ([1]; Control, T0, listed as indacaterol) was “approximately 2%”. The “degradation of indacaterol samples in aqueous solutions over time” value ([1]; FIG. 1, forced degradation experiment) was “minimal degradation”, the “Total Impurities (%)” value ([1]; Oxidation (1.2% H2O2), 7 h) was 2.77% and the “Total Impurities (%)” value ([1]; Oxidation (1.2% H2O2), 29 h) was 8.83%. For the same compound, the “Total Impurities (%)” value ([1]; Oxidation (1.2% H2O2), 29 h, listed as indacaterol) was “approximately 9%”, the “Solubility of indacaterol versus pH” value [2] was “increase with decreasing pH” and the solubility in water [3] was “insoluble”.
